Measured values from US20140341916A1, “THERAPEUTIC COMBINATIONS AND METHODS OF TREATING MELANOMA” (Genentech, Inc., priority 2011, published 2014).

Assays:
ETBR transcript = assay: PD study, ETBR transcript in COLO 829 tumors, Taqman, normalized to GAPDH; format: in vivo, mice; settings: RG7204 10 mpk or 30 mpk twice a day for 3 days
Procedure: A2058 or COLO 829 tumors were grown to an average size of approximately 200 mm^3, whereupon animals were randomized into groups of 5-6 each. For the BRAFi PD study, an appropriate vehicle control (Klucel LF) or RG7204 at doses of 10 mpk or 30 mpk were administered twice a day for 3 days (FIG. 27A). For the MEKi PD study, an appropriate vehicle control or MEKi-973 at doses of 5 mpk and 10 mpk were administered orally once a day for 3 days (FIG. 27B). Flash frozen tumors harvested at end of study were homogenized and processed for RNA and/or protein. Taqman assays were set up using reagents from Applied Biosystems (ABI, Foster City, Calif.) and assayed using 7500 Real Time PCR machine and software from ABI. Primer-probe sets were designed with primers flanking a fluorogenic probe dual labeled with Reporter dye FAM and quencher dye TAMRA. ETBR transcript levels in the tumors were normalized against transcript levels of reference genes such as Hprt1 (hypoxanthine phosphoribosyltransferase 1) or GAPDH (glyceraldehyde 3 phosphate dehydrogenase) using primer and probe sets that were specific to the human homologs of these genes.

ETBR surface protein = assay: Surface ETBR protein in live melanoma cells, FACS; format: cell-based, human; settings: 24 h
Procedure: Melanoma cell lines UACC-257X2.2, A2058, COLO 829, IPC-298 (ATCC) were treated with a BRAF inhibitor drug (“BRAFi”), specifically RG7204 at varying concentrations by adding the appropriate drug volume to cells in culture for 24 h on four-well dishes.
(§1) To determine whether the observed increases in total ETBR protein level due to BRAFi treatment also results in an increase of ETBR surface protein levels, a fluorescence-activated cell sorting (FACS) analysis was performed. Cells were harvested in PBS with 2.5 mmol/L EDTA and washed in PBS buffer containing 1% FBS. All subsequent steps were carried out at 4° C. Cells were incubated for 1 hour with 3 μg/mL anti ETBR antibody Hu5E9v1, followed by anti-human IgG fluorescent detection reagent (A11013; Invitrogen). Cells were then analyzed with a FACS Calibur flow cytometer (BD Biosciences). The results for UACC-257X2.2 are shown in FIG. 4C, the results for A2058 are shown in FIG. 8C, and the results for COLO 829 are shown in FIG. 6C.
Melanoma cell lines A2058, COLO 829, SK23-MEL and IPC-298 (ATCC) were treated with a MEK inhibitor drug (“MEKi-973” or “MEKi-623”), at varying concentrations (0 μM, 0.01 μM, 0.1 μM or 1 μM) by adding the appropriate drug volume to cells in culture for 24 h on four-well dishes.
as §1, with “MEKi” for “BRAFi”, “performed as described above.” for “performed.”, “Biosciences).” for “Biosciences). The results for UACC-257X2.2 are shown in FIG. 4C, the results for A2058 are shown in FIG. 8C, and the results for COLO 829 are shown in FIG. 6C.”

SMILES: CCCS(=O)(=O)Nc1ccc(F)c(C(=O)c2c[nH]c3ncc(-c4ccc(Cl)cc4)cc23)c1F [RG7204, propane-1-sulfonic acid {3-[5-(4-chlorophenyl)-1H-pyrrolo[2,3-b]pyridine-3-carbonyl]-2,4-difluoro-phenyl}-amide]
- ETBR mRNA in tumors vs control vehicle (ETBR transcript): induces ETBR mRNA in vivo
- surface level of ETBR protein vs untreated control cells (ETBR surface protein; A2058 cells): appears to increase the surface levels of ETBR protein
- surface level of ETBR protein vs untreated control cells (ETBR surface protein; COLO 829 cells): appears to increase the surface levels of ETBR protein
- surface level of ETBR protein vs untreated control cells (ETBR surface protein; IPC-298 cells): appears to reduce ETBR levels
- surface level of ETBR protein vs untreated control cells (ETBR surface protein; UACC-257X2.2 cells): appears to increase the surface levels of ETBR protein
